Assay results: patent publication US20220177511A1, “SERIES OF HALOGENATED TETRACYCLIC TRITERPENE DERIVATIVES AND THEIR PREPARATION AND APPLICATION” (SHANGHAI KING-X BIOTECH CO., LTD, priority 2019, published 2022)

Tests used:
[1] = Pharmacokinetics of parent HHQ16 after single intragastric administration of compound 2 prodrugs in rats; assay type: in vivo, rat; details: HHQ16 (parent) measured in rats after single intragastric 10 mg/kg of prodrug (dose converted to HHQ16)
Procedure: 1. The materials and methods for oral absorption test are the same as described in example 44.
The pharmacokinetic parameters of HHQ16 measured after a single intragastric administration of 10 mg/kg of compound 2 prodrug in rats are summarized in Table 2 below.
The half-life was prolonged to varying degrees.

[2] = Solubility test in water and FaSSIF; assay type: physicochemical; details: 37° C., up to 24 hours

| Compound | AUC0-t [1] [ng·h/mL] | Cmax [1] [ng/mL] | t1/2 [1] [h] | Solubility ([2]; FaSSIF (pH 6.5)) [µg/mL] | Solubility ([2]; Water) [µg/mL] |
| --- | --- | --- | --- | --- | --- |
| (S)-1-(((2aR,3R,4S,5aS,5bS,7S,7aR,11aR,12aS)-9,9-difluoro-4-hydroxy-3-((2S,5S)-5-(2-hydroxypropan-2-yl)-2-methyltetrahydrofuran-2-yl)-2a,5a,8,8-tetramethyltetradecahydro-1H,12H-cyclopenta[a]cyclopropa[e]phenanthren-7-yl)oxy)-1-oxopropan-2-aminium Chloride [Compound 2-17] | 5222 | 501 | 7.8 |  |  |
| CN(CC(=O)OC1CC2C3(C)CC(O)C(C4(C)CCC(C(C)(C)O)O4)C3(C)CCC23CC32CCC(F)(F)C(C)(C)C12)C(=O)C(N)Cc1ccccc1.Cl [Compound 2-28, (R)-1-((2-(((2aR,3R,4S,5aS,5bS,7S,7aR,11aR,12aS)-9,9-difluoro-4-hydroxy-3-((2S,5S)-5-(2-hydroxypropan-2-yl)-2-methyltetrahydrofuran-2-yl)-2a,5a,8,8-tetramethyltetradecahydro-1H,12H-cyclopenta[a]cyclopropa[e]phenanthren-7-yl)oxy)-2-oxoethyl)(methyl)amino)-1-oxo-3-phenylpropan-2-aminium Chloride] | 4332 | 475 | 6.2 | 2850 | 650 |
| CC(O)C(N)C(=O)OC1CC2C3(C)CC(O)C(C4(C)CCC(C(C)(C)O)O4)C3(C)CCC23CC32CCC(F)(F)C(C)(C)C12.Cl [Compound 2-20, (2S,3S)-1-(((2aR,3R,4S,5aS,5bS,7S,7aR,11aR,12aS)-9,9-difluoro-4-hydroxy-3-((2S,5S)-5-(2-hydroxypropan-2-yl)-2-methyltetrahydrofuran-2-yl)-2a,5a,8,8-tetramethyltetradecahydro-1H,12H-cyclopenta[a]cyclopropa[e]phenanthren-7-yl)oxy)-3-hydroxy-1-oxobutan-2-aminium Chloride] | 4005 | 582 | 3.6 | 2800 | 1200 |
| CC(C)(O)[C@@H]1CC[C@@](C)([C@H]2[C@@H](O)C[C@@]3(C)[C@@H]4C[C@H](OC(=O)[C@@H](N)CO)[C@H]5C(C)(C)C(F)(F)CC[C@@]56C[C@@]46CC[C@]23C)O1.Cl [Compound 2-19, (S)-1-(((2aR,3R,4S,5aS,5bS,7S,7aR,11aR,12aS)-9,9-difluoro-4-hydroxy-3-((2S,5S)-5-(2-hydroxypropan-2-yl)-2-methyltetrahydrofuran-2-yl)-2a,5a,8,8-tetramethyltetradecahydro-1H,12H-cyclopenta[a]cyclopropa[e]phenanthren-7-yl)oxy)-3-hydroxy-1-oxopropan-2-aminium chloride] | 4400 | 602 | 3.5 | 3980 | 1240 |
| 3-(((2aR,3R,4S,5aS,5bS,7S,7aR,11aR,12aS)-9,9-difluoro-4-hydroxy-3-((2S,5S)-5-(2-hydroxypropan-2-yl)-2-methyltetrahydrofuran-2-yl)-2a,5a,8,8-tetramethyltetradecahydro-1H,12H-cyclopenta[a]cyclopropa[e]phenanthren-7-yl)oxy)-3-oxopropan-1-aminium Chloride [Compound 2-1] | 2955 | 455 | 3.52 |  |  |
| Br.CC(C)(O)C1CCC(C)(C2C(O)CC3(C)C4CC(OC(=O)CN)C5C(C)(C)C(F)(F)CCC56CC46CCC23C)O1 [Compound 2-16, 2-(((2aR,3R,4S,5aS,5bS,7S,7aR,11aR,12aS)-9,9-difluoro-4-hydroxy-3-((2S,5S)-5-(2-hydroxypropan-2-yl)-2-methyltetrahydrofuran-2-yl)-2a,5a,8,8-tetramethyltetradecahydro-1H,12H-cyclopenta[a]cyclopropa[e]phenanthren-7-yl)oxy)-2-oxoethan-1-aminium Bromide] | 4623 | 510 | 5.2 | 5300 | 950 |
| CC(C)(O)[C@@H]1CC[C@@](C)([C@H]2[C@@H](O)C[C@@]3(C)[C@@H]4C[C@H](OC(=O)CNC(=O)[C@@H](N)CO)[C@H]5C(C)(C)C(F)(F)CC[C@@]56C[C@@]46CC[C@]23C)O1.Cl [Compound 2-31, (S)-1-((2-(((2aR,3R,4S,5aS,5bS,7S,7aR,11aR,12aS)-9,9-difluoro-4-hydroxy-3-((2S,5S)-5-(2-hydroxypropan-2-yl)-2-methyltetrahydrofuran-2-yl)-2a,5a,8,8-tetramethyltetradecahydro-1H,12H-cyclopenta[a]cyclopropa[e]phenanthren-7-yl)oxy)-2-oxoethyl)amino)-3-hydroxy-1-oxopropan-2-aminium Chloride] | 3888 | 403 | 4.5 | 6250 | 1650 |
| 2-(((2aR,3R,4S,5aS,5bS,7S,7aR,11aR,12aS)-9,9-difluoro-4-hydroxy-3-((2S,5S)-5-(2-hydroxypropan-2-yl)-2-methyltetrahydrofuran-2-yl)-2a,5a,8,8-tetramethyltetradecahydro-1H,12H-cyclopenta[a]cyclopropa[e]phenanthren-7-yl)oxy)-N-methyl-2-oxoethan-1-aminium Chloride [Compound 2-6] | 3525 | 433 | 4.2 |  |  |
| CC(C)C(N)C(=O)OC1CC2C3(C)CC(O)C(C4(C)CCC(C(C)(C)O)O4)C3(C)CCC23CC32CCC(F)(F)C(C)(C)C12.Cl (mixture of isomers) [Compound 2-15, 1-(((2aR,3R,4S,5aS,5bS,7S,7aR,11aR,12aS)-9,9-difluoro-4-hydroxy-3-((2S,5S)-5-(2-hydroxypropan-2-yl)-2-methyltetrahydrofuran-2-yl)-2a,5a,8,8-tetramethyltetradecahydro-1H,12H-cyclopenta[a]cyclopropa[e]phenanthren-7-yl)oxy)-3-methyl-1-oxobutan-2-aminium Chloride] | 4500 | 451 | 8.2 | 3020 | 770 |
| CC(C)(O)[C@@H]1CC[C@@](C)([C@H]2[C@@H](O)C[C@@]3(C)[C@@H]4C[C@H](OC(=O)CNC(=O)CN)[C@H]5C(C)(C)C(F)(F)CC[C@@]56C[C@@]46CC[C@]23C)O1.Cl [Compound 2-27, 2-((2-(((2aR,3R,4S,5aS,5bS,7S,7aR,11aR,12aS)-9,9-difluoro-4-hydroxy-3-((2S,5S)-5-(2-hydroxypropan-2-yl)-2-methyltetrahydrofuran-2-yl)-2a,5a,8,8-tetramethyltetradecahydro-1H,12H-cyclopenta[a]cyclopropa[e]phenanthren-7-yl)oxy)-2-oxoethyl)amino)-2-oxoethan-1-aminium Chloride] | 3005 | 358 | 7.5 | 4300 | 1300 |
| CC(C)(O)[C@@H]1CC[C@@](C)([C@H]2[C@@H](O)C[C@@]3(C)[C@@H]4C[C@H](OC(=O)C[C@H]5CCCN5)[C@H]5C(C)(C)C(F)(F)CC[C@@]56C[C@@]46CC[C@]23C)O1.Cl [Compound 2-3, (R)-2-(2-(((2aR,3R,4S,5aS,5bS,7S,7aR,11aR,12aS)-9,9-difluoro-4-hydroxy-3-((2S,5S)-5-(2-hydroxypropan-2-yl)-2-methyltetrahydrofuran-2-yl)-2a,5a,8,8-tetramethyltetradecahydro-1H,12H-cyclopenta[a]cyclopropa[e]phenanthren-7-yl)oxy)-2-oxoethyl)pyrrolidin-1-ium Chloride] | 3200 | 460 | 3.98 | 1800 | 950 |
| CC(N)C(=O)N(C)CC(=O)OC1CC2C3(C)CC(O)C(C4(C)CCC(C(C)(C)O)O4)C3(C)CCC23CC32CCC(F)(F)C(C)(C)C12.Cl [Compound 2-29, (S)-1-((2-(((2aR,3R,4S,5aS,5bS,7S,7aR,11aR,12aS)-9,9-difluoro-4-hydroxy-3-((2S,5S)-5-(2-hydroxypropan-2-yl)-2-methyltetrahydrofuran-2-yl)-2a,5a,8,8-tetramethyltetradecahydro-1H,12H-cyclopenta[a]cyclopropa[e]phenanthren-7-yl)oxy)-2-oxoethyl)(methyl)amino)-1-oxopropan-2-aminium Chloride] | 5221 | 605 | 5.6 | 3130 | 950 |
